ChEMBL document CHEMBL1122602, “2-Acetylpyridine thiosemicarbazones. 8. Derivatives of 1-acetylisoquinoline as potential antimalarial agents” (1984)

Key:
Format in all cases: functional
Mus musculus [1] = test: Antimalarial activity was assessed against Plasmodium berghei in mice (Mus musculus) at 640 mg/kg dosage of the compound; Toxic
Mus musculus [2] = test: Antimalarial activity was assessed against Plasmodium berghei in mice (Mus musculus) at 160 mg/kg dosage of the compound; Toxic
Mus musculus [3] = test: Antimalarial activity was assessed against Plasmodium berghei in mice (Mus musculus) at 320 mg/kg dosage of the compound; Toxic
Mus musculus [4] = test: Antimalarial activity was assessed against Plasmodium berghei in mice (Mus musculus) at 640 mg/kg dosage of the compound: Toxic
Mus musculus [5] = test: Antimalarial activity was assessed against Plasmodium berghei in mice (Mus musculus). at 320 mg/kg dosage of the compound; Toxic

SMILES	toxic deaths (Mus musculus [1]) [count]	toxic deaths (Mus musculus [2]) [count]	toxic deaths (Mus musculus [3]) [count]	toxic deaths (Mus musculus [4]) [count]	toxic deaths (Mus musculus [5]) [count]
C/C(=N\N=C(/S)N(C)C1CCCCC1)c1nccc2ccccc12	5	1			
C/C(=N\N=C(/S)N1CC(C)OC(C)C1)c1nccc2ccccc12 (stereo unspecified)	2		1		
C/C(=N\N=C(/S)N1CCCCCC1)c1nccc2ccccc12	4				
C/C(=N\N=C(/S)N(C)C)c1nccc2ccccc12	5		5		
CC(N/N=C(\S)N1CCN(c2ccccn2)CC1)c1nccc2ccccc12 (stereo unspecified)	1		2		
CC(N/N=C(\S)N(C)C)c1nccc2ccccc12 (stereo unspecified)	5	1			
CC1CCN(/C(S)=N/NC(C)c2nccc3ccccc23)CC1 (stereo unspecified)	5		5		
CC(N/N=C(\S)N1CCCCCC1)c1nccc2ccccc12 (stereo unspecified)	2		3		
CC(N/N=C(\S)N(C)C1CCCCC1)c1nccc2ccccc12 (stereo unspecified)	3	2	3		
CC(N/N=C(\S)N1CCCC1)c1nccc2ccccc12 (stereo unspecified)	4		2		
C/C(=N\N=C(/S)N1CCC(C)CC1)c1nccc2ccccc12		1	5	5	
C/C(=N\N=C(/S)N1CCCC1)c1nccc2ccccc12	5				
CC1CN(/C(S)=N/NC(C)c2nccc3ccccc23)CC(C)O1 (stereo unspecified)	1				1
